Earlier results on seven molecules are cited in patent publication US7265248B1, “Compositions and methods for the treatment of malaria” (Technology Innovations, LLC, priority 2005, dated 2007).

Like-named read-outs stand apart in the source and are kept apart here.

The target of one data set is T1, alpha/beta III (Bos taurus, UniProt Q2T9S0).
T1 construct: microtubules were prepared from bovine cerebra by the method of Fellous et al and tubulin was purified therefrom by phosphocellulose chromatography; from tissue; host or cells: bovine cerebra (brain)
Particulars: compared with unfractionated tubulin.

A further data set addresses T2, alpha/beta IV (Bos taurus, UniProt Q3ZBU7).
T2 construct: microtubules were prepared from bovine cerebra by the method of Fellous et al and tubulin was purified therefrom by phosphocellulose chromatography; from tissue; host or cells: bovine cerebra (brain)
To be noted: compared with unfractionated tubulin, alpha/beta II, alpha/beta III.

For another data set, the target named is T3, alpha/beta II (Bos taurus, UniProt Q6B856).
T3 construct: microtubules were prepared from bovine cerebra by the method of Fellous et al and tubulin was purified therefrom by phosphocellulose chromatography; from tissue; host or cells: bovine cerebra (brain)
Particulars: compared with unfractionated tubulin.

The conditions of data set [1]: in vivo.
Experiment in data set [2]: not given
The source holds these as a separate data set.

Another data set concerns the target alpha/beta III dimer (Bos taurus, UniProt Q2T9S0). To be noted: compared with alpha/beta II and alpha/beta IV dimers.

T1 sequence (Q2T9S0 whole entry): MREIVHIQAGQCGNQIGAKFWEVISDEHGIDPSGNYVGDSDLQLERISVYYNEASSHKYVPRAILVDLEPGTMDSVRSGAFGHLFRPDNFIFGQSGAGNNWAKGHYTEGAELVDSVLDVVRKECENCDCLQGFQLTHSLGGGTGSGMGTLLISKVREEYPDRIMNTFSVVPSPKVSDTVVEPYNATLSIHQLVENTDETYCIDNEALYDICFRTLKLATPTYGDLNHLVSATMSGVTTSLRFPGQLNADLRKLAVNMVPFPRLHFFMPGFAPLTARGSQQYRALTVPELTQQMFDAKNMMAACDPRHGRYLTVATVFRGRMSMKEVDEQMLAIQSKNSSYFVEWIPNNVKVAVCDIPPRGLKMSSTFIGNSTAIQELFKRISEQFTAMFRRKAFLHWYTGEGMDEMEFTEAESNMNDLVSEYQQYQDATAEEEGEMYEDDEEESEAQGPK
T1 sequence (P81947 whole entry, further chain): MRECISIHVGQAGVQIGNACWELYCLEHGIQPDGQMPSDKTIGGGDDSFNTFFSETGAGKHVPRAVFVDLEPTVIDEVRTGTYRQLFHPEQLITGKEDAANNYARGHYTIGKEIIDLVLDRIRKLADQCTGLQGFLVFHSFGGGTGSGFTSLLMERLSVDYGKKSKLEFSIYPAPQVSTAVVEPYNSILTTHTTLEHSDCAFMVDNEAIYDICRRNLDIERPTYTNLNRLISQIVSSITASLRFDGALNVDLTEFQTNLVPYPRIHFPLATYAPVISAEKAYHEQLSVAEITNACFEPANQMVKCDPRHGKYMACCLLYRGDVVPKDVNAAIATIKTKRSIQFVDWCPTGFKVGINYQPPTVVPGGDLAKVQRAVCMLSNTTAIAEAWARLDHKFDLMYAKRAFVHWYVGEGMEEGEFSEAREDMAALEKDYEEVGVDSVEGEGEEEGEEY
Chain of alpha/beta III dimer (Q2T9S0 whole entry): as the sequence (Q2T9S0 whole entry) above
Chain of alpha/beta III dimer (P81947 whole entry, further chain): as the sequence (P81947 whole entry, further chain) above
T3 sequence (P81947 whole entry): as the sequence (P81947 whole entry, further chain) above
T3 sequence (Q6B856 whole entry): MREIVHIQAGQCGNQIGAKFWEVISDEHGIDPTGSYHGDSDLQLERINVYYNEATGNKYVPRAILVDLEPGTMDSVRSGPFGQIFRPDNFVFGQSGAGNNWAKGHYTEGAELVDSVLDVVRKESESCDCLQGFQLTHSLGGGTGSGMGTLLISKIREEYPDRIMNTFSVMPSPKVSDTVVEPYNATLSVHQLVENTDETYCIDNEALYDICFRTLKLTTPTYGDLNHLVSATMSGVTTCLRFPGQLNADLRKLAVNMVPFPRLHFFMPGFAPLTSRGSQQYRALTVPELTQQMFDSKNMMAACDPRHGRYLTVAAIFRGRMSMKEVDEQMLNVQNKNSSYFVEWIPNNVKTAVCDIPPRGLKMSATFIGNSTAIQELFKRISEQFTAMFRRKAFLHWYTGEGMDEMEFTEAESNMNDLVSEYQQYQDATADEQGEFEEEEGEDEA
T2 sequence (P81947 whole entry): as the sequence (P81947 whole entry, further chain) above
T2 sequence (Q3ZBU7 whole entry): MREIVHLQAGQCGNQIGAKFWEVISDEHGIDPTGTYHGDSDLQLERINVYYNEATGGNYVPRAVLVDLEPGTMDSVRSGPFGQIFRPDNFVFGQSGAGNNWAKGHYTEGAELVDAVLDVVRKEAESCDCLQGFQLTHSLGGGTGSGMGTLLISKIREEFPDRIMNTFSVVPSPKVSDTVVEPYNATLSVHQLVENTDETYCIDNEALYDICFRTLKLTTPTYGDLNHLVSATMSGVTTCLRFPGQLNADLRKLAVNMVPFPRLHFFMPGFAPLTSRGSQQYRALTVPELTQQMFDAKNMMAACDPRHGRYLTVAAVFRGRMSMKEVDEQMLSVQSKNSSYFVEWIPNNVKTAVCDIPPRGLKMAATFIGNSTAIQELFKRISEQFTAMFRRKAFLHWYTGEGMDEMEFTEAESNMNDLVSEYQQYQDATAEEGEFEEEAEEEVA

For the molecule `COc1cc(OC)c(Cl)c(-n2c(-c3ccccc3)cc(=O)c(C)c2-c2ccc(F)cc2)c1` [IKP-104], the “apparent dissociation constant for the high-affinity site (Kd1)” value on alpha/beta III is reported as “lower than that of unfractionated tubulin”; on alpha/beta IV, “greater than those of unfractionated tubulin, alpha/beta II, or alpha/beta III”; on alpha/beta II, “lower than that of unfractionated tubulin”.
Turning to `O=C1C(O)=C([C@H]2CC[C@H](c3ccc(Cl)cc3)CC2)C(=O)c2ccccc21` [atovaquone], the protein binding is 99%. Moreover, in data set [1], the side effects entry was “rash, vomiting, diarrhea, fever and headache”. Also, the half life in data set [2] (in vivo) is 36 to 72 h. Also, the pharmacokinetic profile entry in data set [2] (in words) is reported as “double peaking”.
Regarding `CCN(CC)CCCC(C)Nc1ccnc2cc(Cl)ccc12` (stereo not shown) [chloroquine], the side effects result in data set [1] was “cardiovascular and CNS effects”. For the same molecule, in data set [2] (in vivo), the volume of distribution result is given as “over 100 l/kg”. For the same molecule, the half life result in data set [2] (in words) is on record as “days to weeks”.
Take `OC(c1cc(C(F)(F)F)nc2c(C(F)(F)F)cccc12)C1CCCCN1` (stereo not shown) [mefloquine]: the protein binding is reported as about 98%. In data set [2] (in words), the volume of distribution entry is listed as “several times the volume of body water”.
As to `CC(=O)O[C@H]1C(=O)[C@@]2(C)[C@H]([C@H](OC(=O)c3ccccc3)[C@]3(O)C[C@H](OC(=O)[C@H](O)[C@@H](NC(=O)c4ccccc4)c4ccccc4)C(C)=C1C3(C)C)[C@]1(OC(C)=O)CO[C@@H]1C[C@@H]2O` [paclitaxel], at alpha/beta III dimer, the interaction with ligand entry is “much less strongly”.
With `COc1cc(NC(C)CCCN)c2ncccc2c1` (stereo not shown) [primaquine], the side effects entry in data set [1] is given as “blood dyscrasias”.
Regarding `CCc1nc(N)nc(N)c1-c1ccc(Cl)cc1` [pyrimethamine], the side effects result in data set [1] was “blood dyscrasias”. In data set [2] (in vivo), the half life is 80 to 95 h.
